Molecular target: human factor Xa (Homo sapiens, UniProt P00742)
Assay: biochemical
Settings: human factor Xa 3 nM, chromogenic substrate S-2222, HNPT buffer pH 7.8, room temperature; apparent Ki calculated from IC50 according to Cheng and Prusoff
Protocol: Factor Xa activity was measured spectrophotometrically in microtiter plates in a final volume of 150 μl using the following conditions: Inhibition of human factor Xa (Enzyme Research Laboratories) was tested at an enzyme concentration of 3 nM using the chromogenic substrate S-2222 (Chromogenix AB, Mölndal, Sweden) at 200 nM. The reaction kinetics of the enzyme and the substrate were linear with both time and the enzyme concentration. The inhibitors were dissolved in DMSO and tested at various concentrations up to 100 μM. The inhibitors were diluted using HNPT buffer consisting of HEPES 100 mM, NaCl 140 mM, PEG 6000 0.1% and Tween 80 0.02%, pH 7.8. […]
The velocity of the reaction was determined by the autoreader from the slope of the linear regression fit to 7 time points (1 minute). The initial velocity for each inhibitor concentration was determined by the slope of at least 4 time points in the linear phase by a linear regression fit (mOD/min^2). Apparent dissociation constants Ki were calculated according to Cheng and Prusoff [Cheng, Y. C.; Prusoff, W. H. Relationship between the inhibition constant (Ki) and the concentration of the inhibitor that causes 50 percent inhibition (IC50) of an enzyme reaction. Biochem. Pharmacol. 1973, 22, 3099-3108.] based on the IC50 and the respective Km, determined previously (Ki=IC50/(I+S/Km)). […]

Chain of human factor Xa (P00742 235-488 limits assumed): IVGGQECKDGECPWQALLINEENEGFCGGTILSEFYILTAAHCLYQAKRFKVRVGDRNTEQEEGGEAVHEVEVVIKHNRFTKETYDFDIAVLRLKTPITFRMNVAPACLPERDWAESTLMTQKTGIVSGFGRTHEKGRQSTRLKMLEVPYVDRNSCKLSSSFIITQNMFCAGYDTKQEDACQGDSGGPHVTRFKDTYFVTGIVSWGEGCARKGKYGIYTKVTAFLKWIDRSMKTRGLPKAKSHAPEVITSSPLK
Chain of human factor Xa (P00742 41-179 partner limits assumed): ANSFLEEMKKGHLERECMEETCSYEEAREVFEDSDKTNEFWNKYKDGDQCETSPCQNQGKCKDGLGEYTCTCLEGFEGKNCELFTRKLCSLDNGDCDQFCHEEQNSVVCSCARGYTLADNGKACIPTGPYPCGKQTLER

CN1CCC(N2CCN(C(=O)Cc3csc(NC(=O)c4ccc(Br)s4)n3)CC2)CC1 [Ex. 47.3, 5-bromo-thiophene-2-carboxylic acid (4-{2-[4-(1-methyl-piperidin-4-yl)-piperazin-1-yl]-2-oxo-ethyl}-thiazol-2-yl)-amide]
Ki: 26 nM

— patent US7718659B2, “Heteroarylacetamide inhibitors of factor Xa” (priority 2004, dated 2010)
